In US20250170090A1, “METHOD FOR PREVENTING OR TREATING DISEASE OR DISORDER ASSOCIATED WITH ANTINEOPLASTIC AGENT” (ONQUALITY PHARMACEUTICALS CHINA LTD., priority 2022, published 2025):
Like-named read-outs stand apart in the source and are kept apart here.

Experiments:
[1] = tested on: anti-tumor agent-induced hand-foot syndrome; assay: Comparison of different mechanism compounds in preventing sorafenib-induced hand-foot syndrome in rats (Table 6); type: in vivo; settings: Sorafenib 80 mg/kg once a day, Days 15
Procedure: After the rats (about 200 g) were acclimated for one week, they were divided into groups of 10 and then subjected to gavage administration experiments. The anti-tumor agent (the anti-tumor agent modeled by sorafenib) was dissolved in a mixed solution of Cremophor EL:ethanol=1:1, and diluted to the required concentration with PBS (diluted about 3 times with PBS solution) before gavage administration. After gavage, the hind paws of the rats were treated with ointments of different mechanisms (NO-releasing agent group, NO-releasing agent combined with clinical drug group, NSAID group), while the control group was treated with a blank ointment. After the application of the ointment, the rats were placed in a fixed cylinder for 4 hours. After 4 hours, the rats were released, and the residual drugs in the application site were wiped off with clean water, and the rats were returned to the cage. Different treatment groups were only applied once a day. Gavage and ointment application were repeated every day until the end of the experiment.
Table 6 lists the animal experimental combinations of various anti-tumor agents and ointments from different treatment groups, as well as the corresponding experimental results (where the value in the control rate column=the incidence rate of hand-foot syndrome in the blank group−the incidence rate of hand-foot syndrome in the treatment group).

[2] = tested on: hand-foot syndrome induced by anti-tumor agents; assay: Prevention of hand-foot syndrome induced by anti-tumor agents in rats, NO-NSAID ointment on hind paws (Table 2-2); type: in vivo, SD rats; settings: Rattus norvegicus, topical, 120 h, Sorafenib 80 mg/kg once a day, Days 5, read-out: Control rate
Text: A rat animal model was constructed, and the anti-tumor agents shown in Table 2-2 were respectively administered to 8-week-old female SD rats by daily oral gavage. […] Therefore, rats serve as an excellent animal model for simulating side effects (such as hand-foot syndrome) caused by anti-tumor agents.
After the rats (about 200 g) were fed and adapted for one week, they were divided into a NO-NSAID group and a control group, with 10 rats in each group, and a gavage administration test was conducted. The various anti-tumor agents were dissolve in a mixed solution of Cremophor EL:ethanol=1:1. The anti-tumor agent solution were diluted with PBS to the required concentration (about 3 times with PBS solution) before gavage administration. After gavage, an ointment containing NO-NSAID was applied to the hind paws of the rats, while the control group was applied with a blank ointment. After application, the rats were placed in a fixed cylinder for 4 hours. After 4 hours, the rats were released and the residual ointment was wiped off with clean water, then the rats were returned to the cage. The gavage frequency of inhibitors was shown in Table 2-2, and NO-NSAID was only applied once a day. The gavage and application operations were repeated daily until the end of the experiment.
Table 2-2 lists the animal experimental combinations of various anti-tumor agents and NO-NSAID ointments, as well as the corresponding experimental results (wherein the value in the control rate column=the hand-foot syndrome incidence rate in the blank group−the hand-foot syndrome incidence rate in the treatment group).

[3] = tested on: HUVEC cells; assay: CCK-8 cell viability: alleviation of proliferative toxicity of anti-tumor agents on HUVEC cells (Tables 7-1, 7-2); type: cell-based; settings: Homo sapiens, 24 h, NO-NSAID 100 μM, percentage increase in viable cells vs anti-tumor agent alone, read-out: Response rate % (average)
Procedure: The cultured HUVEC cells were digested the suspended, counted, and seed into a 96-well plate with 5,000-10,000 cells per well. The wells are divided into the following groups: blank control group, anti-tumor agent group, anti-tumor agent+NO-NSAID group, anti-tumor agent solvent group, NO-NSAID control group. Wherein each well of each group contained a basic medium, and the final liquid volume contained in each well was about 100 μL. The grouping situation was as follows: • 1) Blank control group: no solution was added except normally replacing the medium; • 2) Anti-tumor agent group: added the anti-tumor agent solution (the final concentration was shown in Table 7-1 and Table 7-2, the solvent of the anti-tumor agent solution was DMSO); • 3) Anti-tumor agent+NO-NSAID group: added the anti-tumor agent solution and the NO-NSAID solution (the final concentrations of anti-tumor agent and NO-NSAID were shown in Table 7-1 and Table 7-2, and according to the solubility of NO-NSAID, the solvent of NO-NSAID solution was selected as ethanol or sterile water, and minor volume differences in each group were adjusted by added the corresponding solvent); • 4) Anti-tumor agent solvent group: an equal volume of DMSO as contained in the corresponding anti-tumor agent solution in Group 2) was added; • 5) NO-NSAID control group: the same volume and type of solvent (for example, ethanol or sterile water) corresponding to the NO-NSAID contained in group 3) was added.
The anti-tumor agent solvent group was not involved in data processing and was only used as a reference for evaluating experimental system error. The NO-NSAID solvent control group was used for data correction to eliminate the influence of the solvent on the results.
After culturing for 24-48 hours, the Cell Counting Kit-8 (CCK-8) detection kit (C0037, Shanghai Beyotime Biotechnology Co., Ltd., Beyotime Biotechnology) was used to determine the cell viability. This allows for the calculation of the proliferative toxicity of anti-tumor agent on cell and the mitigating effect of NO-NSAID on proliferative toxicity. The results were statistically analyzed and plotted using GraphPad Prism 6.0 software and t test.

Structure (SMILES)	activation at 100 µM ([3]; Afatinib (10 μM)) [%]	activation at 100 µM ([3]; Anlotinib (5 μM)) [%]	activation at 100 µM ([3]; Apatinib (10 μM)) [%]	activation at 100 µM ([3]; Axitinib (10 μM)) [%]	activation at 100 µM ([3]; Cabozantinib (5 μM)) [%]	activation at 100 µM ([3]; Dabrafenib (10 μM)) [%]	activation at 100 µM ([3]; Dacomitinib (5 μM)) [%]	activation at 100 µM ([3]; Encorafenib (5 μM)) [%]	activation at 100 µM ([3]; Erdafitinib (10 μM)) [%]	activation at 100 µM ([3]; Everolimus (5 μM)) [%]	activation at 100 µM ([3]; Famitinib (5 μM)) [%]	activation at 100 µM ([3]; Fruquintinib (10 μM)) [%]	activation at 100 µM ([3]; Gefitinib (10 μM)) [%]	activation at 100 µM ([3]; Infigratinib (15 μM)) [%]	activation at 100 µM ([3]; Lapatinib (5 μM)) [%]	activation at 100 µM ([3]; Lenvatinib (10 μM)) [%]	activation at 100 µM ([3]; Olmutinib (10 μM)) [%]	activation at 100 µM ([3]; Regorafenib (5 μM)) [%]	activation at 100 µM ([3]; Selumetinib (5 μM)) [%]	activation at 100 µM ([3]; Sorafenib (5 μM)) [%]	also measured
CC(=O)Oc1ccccc1C(=O)O [Acetylsalicylic acid]																					Control rate ([1]; ointment 1.00% wt): 14.29%
O=[N+]([O-])OCC(CO[N+](=O)[O-])O[N+](=O)[O-] [Nitroglycerin]																					Control rate ([1]; ointment 0.20% wt): 60%
COc1ccc2cc(C(C)C(=O)OCC(CO[N+](=O)O)C[N+](=O)[O-])ccc2c1 (centres unmarked) [Compound A9]	32	58	62	45	0	35	39	15	42	7	33	56	40	29	40	43	42	40	36	48	responders at 1 % ([2]; ointment 1% wt): 28.6%; responders at 5 % ([2]; ointment 5% wt): 33.3%; activation at 100 µM ([3]; Sunitinib (5 μM)): 16%; activation at 100 µM ([3]; Vemurafenib (5 μM)): 39%
CC(C)Cc1ccc(C(C)C(=O)O)cc1 (centres unmarked) [Ibuprofen]																					Control rate ([1]; ointment 2.00% wt): 0%
CC(C(=O)OCC(CO[N+](=O)[O-])O[N+](=O)[O-])c1ccc(-c2ccccc2)c(F)c1 (centres unmarked) [Compound A10]	56	27	58	-7	49	42	37	33	23	21	49	59	40	32	32	57	48	48	46	13	activation at 100 µM ([3]; Sunitinib (5 μM)): 21%; activation at 100 µM ([3]; Vemurafenib (5 μM)): 63%
COc1ccc2cc([C@H](C)C(=O)O)ccc2c1 [Naproxen]																					Control rate ([1]; ointment 2.50% wt): 16.67%
